# Like-named read-outs stand apart in the source and are kept apart here.
# Experiments:
# patient = experiment: Medication history of a patient with facial burning and numbness following trigeminal rhizotomy; type: in vivo, human; conditions: single patient; facial burning and numbness after rhizotomy for trigeminal neuralgia
# Protocol: In a similar manner as that described above for a healthy volunteer, we examined fMRI activation in a patient who had facial burning and numbness following trigeminal rhizotomy one year previously for trigeminal neuralgia. Medications, including gabapentin and tegretol, had been unhelpful. Careful questioning and psychophysical evaluation was performed. […] They also had decreased warm and cold sensation on the affected side vs. the intact side. They underwent functional neuroimaging for thermal stimuli applied to the V2 and V3 distributions on the right and left. FIGS. 3A-3E show the results of cortical activation from this patient. There was a decrease in activation to a 45° C. stimulus applied to the affected area and an apparent increase in signal for the same stimulus applied to the ipsilateral V3 distribution.
# opioid naïve individuals = experiment: fMRI response to morphine in opioid naïve individuals; type: in vivo, human
# Source text: Some of these have an oppositely valenced signal to that observed for aversive painful stimuli. […] This observation is in counter distinction to that observed for cortical activation by painful stimuli (see above).
# healthy human volunteers = tested on: healthy human volunteers
# Source text: We also investigated the effects of the general anesthetic agent propofol on cerebral structures involved in the processing of vibrotactile information. Using positron emission tomography (PET) and the H(2)(15)O bolus technique, we measured regional distribution of cerebral blood flow (CBF) in eight healthy human volunteers. They were scanned under five different levels of propofol anesthesia. Using a computer-controlled infusion, the following plasma levels of propofol were targeted: Level W (Waking, 0 microg/ml), Level 1 (0.5 microg/ml), Level 2 (1.5 microg/ml), Level 3 (3.5 microg/ml), and Level R (Recovery). At each level of anesthesia, two 3-min scans were acquired with vibrotactile stimulation of the right forearm either on or off. The level of consciousness was evaluated before each scan by the response of the subject to a verbal command.
smiles,measurement,setting,value
NCC1(CC(=O)O)CCCCC1 [gabapentin],clinical benefit of medication,patient,unhelpful
CN1CC[C@]23c4c5ccc(O)c4O[C@H]2[C@@H](O)C=C[C@H]3[C@H]1C5 [morphine],fMRI activation in subcortical structures,opioid naïve individuals,activation in deep subcortical structures including those involved in reward
same,fMRI signal in the SI cortex,opioid naïve individuals; low-dose morphine,decrease in signal in SI
CC(C)c1cccc(C(C)C)c1O [propofol],level of consciousness,"healthy human volunteers; Level 1, target plasma 0.5 microg/ml",slightly drowsy
same,vibration-induced increases in rCBF in the primary and secondary somatosensory cortex,"healthy human volunteers; Level 1 through 3 (0.5-3.5 microg/ml target plasma), vibrotactile stimulation of right forearm",suppressed vibration-induced increases in rCBF
same,level of consciousness,"healthy human volunteers; Level 2, target plasma 1.5 microg/ml",slurred speech and slow response
same,level of consciousness,"healthy human volunteers; Level 3, target plasma 3.5 microg/ml",not responding at all
same,thalamic rCBF response to vibrotactile stimulation,"healthy human volunteers; Level 3 = 3.5 microg/ml target plasma, volunteers lost consciousness",abolished only at Level 3
same,"rCBF in the thalamus and in visual, parietal, and prefrontal cortical regions","healthy human volunteers; during anesthesia, target plasma levels 0.5, 1.5, 3.5 microg/ml",reduced in a dose-dependent manner rCBF
NC(=O)N1c2ccccc2C=Cc2ccccc21 [tegretol],clinical benefit of medication,patient,unhelpful

# Source: patent US20110152249A1, “EVALUATING CENTRAL NERVOUS SYSTEM” (THE GENERAL HOSPITAL CORPORATION, priority 2004, published 2011)
